The target in one experiment is EGFR wt (Homo sapiens (Human), UniProt P00533). Briefly: Biochemical EGFR inhibition assay (TR-FRET, poly-GT substrate), EGFR wt. Here is the method: (§1) Biochemical EGFR Inhibition Assays
(§2) Initially, the inhibitory effect of compounds according to the invention is measured in biochemical assays which measure the phosphorylation activity of EGFR enzyme forms on poly-GT substrate in the presence of different concentrations of ATP (5 μM and 100 μM final assay concentration).
(§3) The following enzyme forms of EGFR are representative examples that can be used in these assays at the given concentrations:
(§4) For the chosen highest assay concentration of 100 μM, 150 nL of compound solution is transferred from a 10 mM DMSO compound stock solution. A series of eleven fivefold dilutions per compound is transferred to the assay plate, compound dilutions are tested in duplicates. DMSO is added as backfill to a total volume of 150 nL. The assay runs on a fully automated robotic system.
(§5) These biochemical EGFR enzyme form compound dose-response assays quantify the kinase activity via phosphorylation of a tagged poly-GT substrate. The results of the assay are provided as IC50 values.
On the technique in general: In TR-FRET formats the signal depends on donor and acceptor labels being close together.

Experiment [1] concerns the target EGFR (mutated) 695-1022, T790M, C797S, L858R (Homo sapiens (Human), UniProt P00533, C797S/L858R/T790M). As to the kind of experiment: Biochemical EGFR inhibition assay (TR-FRET, poly-GT substrate), EGFR T790M C797S L858R. The protocol: as §1, §2, §3, §4, §5
Experiment [2] has as its target EGFR del19 T790M C797S protein in Ba/F3 cells (Homo sapiens, UniProt P00533, C797S/DEL746-750/T790M). As to the kind of experiment: pEGFR assay (AlphaScreen Surefire, EGFR Tyr1068 phosphorylation). The class given is cell-based. Here is the method: Transduced cells were selected using puromycin. Following selection, IL-3 was withdrawn and IL-3 independent cells cultured. p-EGFR Tyr1068 was determined using the AlphaScreen Surefire pEGF Receptor (Tyr1068) Assay (PerkinElmer, TGRERS). […] Subsequently, 60.000 cells/well in 60 μL were added. Cells were incubated with compound for 4 h at 37° C. […] The mixture was incubated at room temperature with shaking (700 rpm) for 20 min. After centrifugation, 4 μL of the lysate were transferred to Proxiplates. […] Plates were shaken for 1 min (1400 rpm) and incubated for 2 h at room temperature in the dark.
The results of the assay are provided as IC50 values (see table 12).
(Alpha assays give light when donor and acceptor beads are brought close together.)

Where [3] appears, read: read-out: wt (5 μM ATP) IC50, 5 μM ATP.
The mark [4] stands for this setting: read-out: LR_TM_CS (5 μM ATP) IC50, 5 μM ATP.

pIC50: −log10 of the molar value. Where two headings read alike, the source gives them in different places.

In general, pIC50 refers to −log10 of the IC50, conventionally taken in molar units.

Chain of EGFR (mutated) 695-1022, T790M, C797S, L858R (P00533 695-1022 T790M/C797S/L858R): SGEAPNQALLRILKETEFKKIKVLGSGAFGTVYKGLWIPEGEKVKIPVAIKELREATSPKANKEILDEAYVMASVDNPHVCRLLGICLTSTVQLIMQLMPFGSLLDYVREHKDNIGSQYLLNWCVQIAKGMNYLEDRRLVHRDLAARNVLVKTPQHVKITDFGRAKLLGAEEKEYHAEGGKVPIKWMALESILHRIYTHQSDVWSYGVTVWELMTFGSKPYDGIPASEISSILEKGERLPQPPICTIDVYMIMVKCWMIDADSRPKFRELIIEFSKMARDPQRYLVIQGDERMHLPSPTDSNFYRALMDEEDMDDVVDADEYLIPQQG
Chain of EGFR del19 T790M C797S protein in Ba/F3 cells (P00533 with tags, fused parts or gaps C797S/DEL746-750/T790M limits assumed): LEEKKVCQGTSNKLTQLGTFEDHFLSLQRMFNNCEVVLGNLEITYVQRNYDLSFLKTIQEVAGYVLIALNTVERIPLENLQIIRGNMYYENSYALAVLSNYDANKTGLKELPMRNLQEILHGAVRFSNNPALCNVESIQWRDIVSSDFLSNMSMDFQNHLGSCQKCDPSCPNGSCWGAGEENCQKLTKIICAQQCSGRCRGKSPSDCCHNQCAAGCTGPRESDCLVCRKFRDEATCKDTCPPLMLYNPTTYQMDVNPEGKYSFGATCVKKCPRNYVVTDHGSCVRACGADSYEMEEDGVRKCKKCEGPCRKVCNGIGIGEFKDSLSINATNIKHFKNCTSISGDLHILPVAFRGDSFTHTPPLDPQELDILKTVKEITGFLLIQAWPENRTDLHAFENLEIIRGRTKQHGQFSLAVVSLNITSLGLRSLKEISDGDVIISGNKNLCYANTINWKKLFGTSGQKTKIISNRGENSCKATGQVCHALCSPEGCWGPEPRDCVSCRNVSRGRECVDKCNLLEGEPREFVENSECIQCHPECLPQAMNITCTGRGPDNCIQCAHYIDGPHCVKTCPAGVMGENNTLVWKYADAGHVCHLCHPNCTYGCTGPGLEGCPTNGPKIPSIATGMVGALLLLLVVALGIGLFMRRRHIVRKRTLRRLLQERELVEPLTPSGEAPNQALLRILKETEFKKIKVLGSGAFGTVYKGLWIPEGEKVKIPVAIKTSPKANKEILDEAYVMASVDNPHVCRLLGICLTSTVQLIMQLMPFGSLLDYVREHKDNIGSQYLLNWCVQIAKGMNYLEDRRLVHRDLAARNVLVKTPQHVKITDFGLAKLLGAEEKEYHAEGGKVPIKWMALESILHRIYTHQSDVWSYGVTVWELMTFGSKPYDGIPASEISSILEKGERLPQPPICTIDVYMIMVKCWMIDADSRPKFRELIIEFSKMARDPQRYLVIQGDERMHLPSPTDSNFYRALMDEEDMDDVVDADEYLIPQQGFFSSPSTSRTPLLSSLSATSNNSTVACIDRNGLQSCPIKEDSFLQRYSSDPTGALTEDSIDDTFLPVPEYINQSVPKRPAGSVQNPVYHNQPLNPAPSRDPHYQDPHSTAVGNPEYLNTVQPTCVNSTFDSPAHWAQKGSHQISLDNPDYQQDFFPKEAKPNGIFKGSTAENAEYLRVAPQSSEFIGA
Chain of EGFR wt (P00533 25-1210): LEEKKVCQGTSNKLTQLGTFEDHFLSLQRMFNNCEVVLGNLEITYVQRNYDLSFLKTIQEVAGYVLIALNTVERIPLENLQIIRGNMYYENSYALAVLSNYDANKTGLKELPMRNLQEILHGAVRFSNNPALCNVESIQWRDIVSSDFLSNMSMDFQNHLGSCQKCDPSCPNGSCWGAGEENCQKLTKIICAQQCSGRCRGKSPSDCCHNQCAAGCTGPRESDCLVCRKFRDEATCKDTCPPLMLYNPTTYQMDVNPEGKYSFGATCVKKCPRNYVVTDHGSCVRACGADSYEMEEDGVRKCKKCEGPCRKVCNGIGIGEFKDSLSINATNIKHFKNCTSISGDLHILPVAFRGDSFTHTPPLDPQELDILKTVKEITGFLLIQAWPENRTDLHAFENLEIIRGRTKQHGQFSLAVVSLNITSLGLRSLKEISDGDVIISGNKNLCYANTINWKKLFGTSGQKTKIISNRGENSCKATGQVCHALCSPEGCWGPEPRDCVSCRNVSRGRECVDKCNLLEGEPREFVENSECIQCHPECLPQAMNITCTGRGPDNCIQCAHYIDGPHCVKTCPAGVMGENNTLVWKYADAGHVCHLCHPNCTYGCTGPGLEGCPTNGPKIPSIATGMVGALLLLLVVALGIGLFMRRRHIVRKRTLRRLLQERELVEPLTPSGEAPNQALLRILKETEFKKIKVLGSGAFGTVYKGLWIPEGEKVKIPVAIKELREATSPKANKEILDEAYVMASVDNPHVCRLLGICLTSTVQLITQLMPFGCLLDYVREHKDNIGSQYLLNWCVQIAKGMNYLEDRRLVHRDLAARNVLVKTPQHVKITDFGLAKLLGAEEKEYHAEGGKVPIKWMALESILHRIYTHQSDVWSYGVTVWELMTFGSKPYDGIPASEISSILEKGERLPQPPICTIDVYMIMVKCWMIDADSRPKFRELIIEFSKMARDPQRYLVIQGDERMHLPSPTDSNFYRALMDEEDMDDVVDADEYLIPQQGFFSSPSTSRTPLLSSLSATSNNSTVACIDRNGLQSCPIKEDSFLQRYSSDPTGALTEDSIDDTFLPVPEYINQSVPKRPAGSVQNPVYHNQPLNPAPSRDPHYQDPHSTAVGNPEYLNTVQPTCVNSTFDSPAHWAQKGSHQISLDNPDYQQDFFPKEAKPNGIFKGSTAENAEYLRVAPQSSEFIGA

In the case of `Cn1cc(-c2cc(C(=O)/N=c3\[nH]c4cc(CN5CCOCC5)ccc4n3[C@H]3CC[C@@H](O)CC3)cc(C#N)n2)cn1` [I-145], the values for the pIC50 (on EGFR wt (setting [3]); in experiment [1] (setting [4]); in experiment [2]) were 6.40, 8.77 and 8.52, respectively.
Taken in the same sequence, the figures for `Cn1cc(-c2cc(C(=O)/N=c3\[nH]c4ccccc4n3[C@H]3C[C@H](O)C[C@H](O)C3)ccn2)cn1` [I-207] were 6.27, 8.52 and 7.59.
Taken in the same sequence, the figures for `Cn1cc(-c2cc(C(=O)/N=c3\[nH]c4ccccc4n3[C@H]3CC[C@@H](O)CC3)cc(Cl)n2)cn1` [I-146] were 5.81, 8.55 and 8.30.
Taken in the same sequence, the figures for `Cc1cc(C(=O)/N=c2\[nH]c3ccc(CN4CCOCC4)cc3n2CC(C)(C)O)cc(-c2cnn(C)c2)n1` [I-213] were < 4.00, 7.27 and 7.35.
Take `CC(C)(O)Cn1/c(=N/C(=O)c2ccnc(-c3cccnc3)c2)[nH]c2cc(CCO)ccc21` [I-056]: the values for the pIC50 (on EGFR wt (setting [3]); in experiment [1] (setting [4]); in experiment [2]) were < 4.00, 6.93 and 8.30, respectively.
`Cn1cc(-c2cc(C(=O)/N=c3\[nH]c4cc(CCCO)ccc4n3CC(C)(C)O)ccn2)cn1` [I-184]: the pIC50 is 5.82 on EGFR wt (setting [3]), 8.11 in experiment [1] (setting [4]) and 7.72 in experiment [2].
Take `Cc1cc(C(=O)/N=c2\[nH]c3cc(CN4CCN(C)CC4)ccc3n2[C@H]2CCC[C@H](O)C2)cc(-c2cnn(C)c2)n1` [I-208]: the negative logarithm of the IC50 (pIC50) on EGFR wt (setting [3]) is 5.13; in experiment [1] (setting [4]), 8.27; in experiment [2], 7.36.
Take `COc1ccccc1-c1cc(C(=O)/N=c2\[nH]c3ccccc3n2[C@@H]2CC[C@H](O)[C@H](O)C2)ccn1` [I-144]: the negative-log IC50 (pIC50) was 6.96 at EGFR wt (setting [3]), 8.16 in experiment [1] (setting [4]) and 8.52 in experiment [2].
Taken in the same sequence, the figures for `COc1ccncc1-c1cc(C(=O)/N=c2\[nH]c3ccccc3n2[C@H]2CC[C@@H](O)CC2)cc(C#N)n1` [I-167] were 6.00, 8.34 and 8.15.
As for `COc1ccccc1-c1cc(C(=O)/N=c2\[nH]c3cc(CN4CCOCC4)ccc3n2CC(C)(C)O)ccn1` [I-060], the pIC50 on EGFR wt (setting [3]) was 7.18; in experiment [1] (setting [4]) it was 9.15; in experiment [2], 9.00.
On to `COc1ccccc1-c1cc(C(=O)/N=c2\[nH]c3cc(CN4CCOCC4)ccc3n2[C@H]2CCC[C@H](O)C2)ccn1` [I-181], for which the pIC50 was 7.51 at EGFR wt (setting [3]), 8.77 in experiment [1] (setting [4]) and 7.92 in experiment [2].
On to `Cn1cc(-c2cc(C(=O)/N=c3\[nH]c4ccccc4n3[C@H]3COC[C@H](O)C3)ccn2)cn1` [I-168], for which the pIC50 at EGFR wt (setting [3]) was 5.90; in experiment [1] (setting [4]), 8.30; in experiment [2], 8.00.
As to `COc1ccccc1-c1cc(C(=O)/N=c2\[nH]c3ccccc3n2[C@H]2CC[C@@H](O)CC2)ccn1` [I-108], the pIC50 at EGFR wt (setting [3]) was 7.71; on EGFR wt (read-out: wt (100 μM ATP) IC50, 100 μM ATP), 5.99; in experiment [1] (setting [4]), 9.22; in experiment [1] (read-out: LR_TM_CS (100 μM ATP) IC50, 100 μM ATP), 7.99; in experiment [2], 8.52.
In the case of `CC(C)(O)Cn1/c(=N/C(=O)c2ccnc(-c3cccc4ccoc34)c2)[nH]c2ccccc21` [I-98], the negative logarithm of the IC50 (pIC50) in experiment [2] was 8.22.
The same measure, in the same setting: as for `COCCN1CCC(c2ccc3c(c2)[nH]/c(=N\C(=O)c2ccnc(-c4cnn(C)c4C)c2)n3CC(C)(C)O)CC1` [I-045], the figure is 8.70; as for `CNc1ccc2c(c1)[nH]/c(=N\C(=O)c1ccnc(-c3cnn(C)c3)c1)n2CC(C)(C)O` [I-172], 8.05.
The same measure, in the same setting: as for `CC(C)(O)Cn1/c(=N/C(=O)c2ccnc(-c3cnc4cccnn34)c2)[nH]c2ccccc21` [I-041], the figure is 9.00; as for `COc1ccccc1-c1cc(C(=O)/N=c2\[nH]c3ccccc3n2[C@H]2CCCC[C@H]2O)ccn1` [I-186], 7.64; as for `CC(C)(O)Cn1/c(=N/C(=O)c2ccnc(-c3cccc(O)c3)c2)[nH]c2ccccc21` [I-104], 7.92.
